Assay results as given in US8835134B2, “Cycloastragenol monoglucoside, preparation, pharmaceutical composition and application thereof” (Tianjin Institute of Pharmaceutical Research, priority 2007, dated 2014).

How the values were obtained:
[1] = Solubility; type: physicochemical
[2] = Oral absorption

SMILES | solubility [1] | oral absorption [2]
CC(C)(O)[C@@H]1CC[C@](C)([C@H]2[C@@H](O)C[C@@]3(C)[C@@H]4C[C@H](O[C@@H]5O[C@H](CO)[C@@H](O)[C@H](O)[C@H]5O)[C@H]5C(C)(C)[C@@H](O[C@@H]6OC[C@@H](O)[C@H](O)[C@H]6O)CC[C@@]56C[C@@]46CC[C@]23C)O1 [astragaloside IV, reference compound] | 2-4 mg/100 ml | 
CC(C)(O)[C@@H]1CC[C@](C)([C@H]2[C@@H](O)C[C@@]3(C)C4C[C@H](OC5OC(CO)C(O)C(O)C5O)C5C(C)(C)[C@@H](O)CC[C@@]56C[C@@]46CC[C@]23C)O1 (stereo partly drawn) [CMG, Cycloastragenol-6-O-β-D-glucoside] | 40-50 mg/100 ml | good oral absorption properties
